This note sets out measurements from US11440935B2, “3″,5″-dimethoxybenzoyl-3′-amino-3′-deoxy adenosine-5′-triphosphates and pharmaceutical uses thereof” (Danmir Therapeutics, LLC, priority 2018, dated 2022).

One data set deals with T1, P2Y12 (Homo sapiens, UniProt Q9H244).
T1 construct: expressed in transfected cells
In words: PDSP functional assay in vitro (PRESTO-Tango), agonist/antagonist. The format is cell-based. On the procedure: (§1) The assays were carried out utilizing the method set forth in Kroeze et al., PRESTO-Tango as an open-source resource for interrogation of the druggable human GPCRome, Nat. Struct. Mol. Biol. 2015 May; 22(5):362-9.

The next data set deals with T2, P2Y13 (Homo sapiens, UniProt Q9BPV8).
T2 construct: expressed in transfected cells
T2 sequence (Q9BPV8 1-354): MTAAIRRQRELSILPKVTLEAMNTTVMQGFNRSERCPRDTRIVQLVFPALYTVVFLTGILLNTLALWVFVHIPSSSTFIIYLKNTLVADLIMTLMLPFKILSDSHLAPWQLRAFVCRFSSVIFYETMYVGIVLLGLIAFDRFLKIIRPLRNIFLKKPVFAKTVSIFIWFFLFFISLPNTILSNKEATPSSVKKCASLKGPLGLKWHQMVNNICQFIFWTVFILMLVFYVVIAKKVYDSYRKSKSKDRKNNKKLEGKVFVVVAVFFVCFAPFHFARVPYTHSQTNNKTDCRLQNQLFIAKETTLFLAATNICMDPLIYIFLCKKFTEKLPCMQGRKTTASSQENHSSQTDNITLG
Described as above. The format is cell-based. As to the method:
as §1

The next data set deals with T3, P2Y2 (Homo sapiens, UniProt P41231).
T3 construct: expressed in transfected cells
Described as above. The format is cell-based. On the procedure: as §1

The target of a further data set is T4, P2Y4 (Homo sapiens, UniProt P51582).
T4 construct: expressed in transfected cells
The description is as above. The format is cell-based. On the procedure:
as §1

In another data set the target is T5, P2Y6 (Homo sapiens, UniProt Q15077).
T5 construct: expressed in transfected cells
The description is as above. Type of data set: cell-based. As to the method: as §1

Data set [1] concerns nodose ganglion vagal sensory nerve terminals. Nature of the data set: ATP-induced neural action potentials in guinea-pig lung-vagus preparation ex vivo. As to conditions: ATP 10 μM; DT-0111 1 mM; innervated guinea-pig lung ex vivo. On the procedure: The innervated guinea-pig lung preparation was prepared as was described in Undem B J, Chuaychoo B, Lee M G, Weinreich D, Myers A C, Kollarik M. Subtypes of vagal afferent C-fibres in guinea-pig lungs. J Physiol 2004; 556: 905-917; Weigand L A, Ford A P, Undem B J. A role for ATP in bronchoconstriction-induced activation of guinea pig vagal intrapulmonary C-fibres. J Physiol 2012; 590: 4109-4120. The contents of Undem et al. and Weigand et al. are incorporated herein for the purpose of the preparation of the innervated guinea-pig lung preparation. The response to ATP (10 μM; 1 ml, slowly infused into trachea and pulmonary artery) was assessed as the number of action potentials it elicited. Two control responses 15 minutes apart were recorded. There was not differences in the number of action potentials evoked between the first and second response (p>0.1). Subsequently, the lung superfused and perfused via both trachea and pulmonary artery for 15 min with increasing concentration of DT-0111 and the ATP challenge was repeated. The data were quantified as the total number of action potentials evoked and the peak frequency (Hz) as measured by the most action potentials evoked in any 1 s bin. DT-0111 was prepared in distilled water as a 10 mM solution, and aliquots were stored frozen at −20° C. (1-5 days). […]

The subject of a further data set is conscious guinea-pigs. Nature of the data set: Aerosolized ATP-induced cough in conscious free moving guinea-pigs. The format is in vivo, guinea-pig. On the procedure: This study was performed in 6 guinea-pigs. The housing room was constantly ventilated, and the temperature kept at ˜23° C. After quarantine, the animals were individually placed in a whole-body, unrestrained, plethysmograph chamber (model PLY3215, Buxco Electronics Inc., Troy, N.Y.) for ˜40 min once a day for two continuous days before the cough test. All GPs were weighed before the cough study.
ATP was purchased from Sigma-Aldrich (Cat #A2383-10G). Solutions of ATP used for aerosol challenge were freshly made just prior to use by dissolving the powder in 0.9% saline (NaCl) solution. Solutions of DT-0111 used for aerosol administration were freshly made by dissolving the powder in 0.9% saline (NaCl) solution.
A plethysmograph chamber was continuously flushed with normoxic (21% O2 and 79% N2) room air at 2 L/min. The same amount of air was drawn through the chamber base outlets using a Buxco bias flow regulator to keep the chamber bias flow balanced. ATP or DT solution was aerosolized by using a vibrating mesh nebulizer (Ireland Ltd., Galway Ireland, AG-AL1100). The output rate of delivered aerosol was around 0.5 ml/min with droplet size (volume median diameter) at 2.5-4.0 μm (manufacture's indications). The aerosol was mixed with airflow and directly delivered into the plethysmograph chamber. The latter was placed in a standard chemical fume hood (size: 3×6 ft) installed in a standard laboratory.
A guinea-pig was placed in the chamber again after adaptation. Following stabilization, #1 guinea-pig was exposed to aerosolized ATP at 6 mg/ml, 24 mg/ml, and then 48 mg/ml for 5 min with an interval of 30 min. The remaining animals (#2-#6 guinea-pigs) were exposed to aerosolized ATP at 48 mg/ml for 5 min. Approximately 140 min later, the same dose of ATP was repeated immediately after DT-0111 aerosol inhalation (12 mg/ml for 5 min). […] The cough sound and behavioral activities were continuously monitored and recorded before (for 3 min), during 5 min aerosol delivery, and 20 min after cessation of the delivery.
Setup of the cough recording system. The top of the plethysmograph chamber was connected with a plastic tube that was attached by the nebulizer. Normoxic air driven by the nebulizer controller was flowed into the chamber and sucked out by the bias flow regulator with the in and out flow volume balanced (2.0 L/min). To detect cough, a microphone system was mounted in the roof of the chamber to record sound; a video camera was placed outside of the chamber to monitor animal body posture; and a Buxco pneumotachograph (differential pressure transducer) attached to the chamber to record airflow. All signals generated by video camera, microphone, and pressure transducer were amplified and recorded continuously by PowerLab/8 sp (model ML 785; ADInstruments Inc., Colorado Springs, Colo.) and a computer with the LabChart Pro 7 software.
Cough count. A typical cough response, as reported before (Girard et al., Eur Respir J, 1995; Blasko et al., American Journal of Advanced Drug Delivery. 5:131-138, 2017; Corboz et al., Journal of Pharmacology and Experimental Therapeutics. 363: 348-357, 2017), was defined by the simultaneous appearance of: 1) a transient and great change in the airflow (a rapid inspiration followed by rapid expiration); 2) a typical cough sound with the peak power density at 1-2 kHz in frequency spectrum (sneeze at 3.5-6.5 kHz); and 3) animal body (head) posture and movement.

The mark [2] stands for this setting: DT (12 mg/ml, 5 min) + ATP (48 mg/ml), per guinea-pig.
The mark [3] stands for this setting: aerosolized DT-0111 12 mg/ml, n=5.

Values joined by “and” are separate entries in the source; they are usually repeats but may differ in a detail not shown here. Identical values can stand only once.

T3 sequence (P41231 whole entry): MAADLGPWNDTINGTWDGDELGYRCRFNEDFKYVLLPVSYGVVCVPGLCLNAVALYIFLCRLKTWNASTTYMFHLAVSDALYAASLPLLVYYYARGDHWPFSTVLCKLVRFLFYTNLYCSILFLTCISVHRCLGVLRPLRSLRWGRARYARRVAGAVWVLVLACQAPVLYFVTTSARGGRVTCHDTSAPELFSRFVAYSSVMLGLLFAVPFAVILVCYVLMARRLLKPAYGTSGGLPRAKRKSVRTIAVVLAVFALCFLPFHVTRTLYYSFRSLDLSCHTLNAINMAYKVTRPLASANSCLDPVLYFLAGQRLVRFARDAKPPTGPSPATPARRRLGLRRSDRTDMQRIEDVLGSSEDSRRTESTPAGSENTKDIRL
T1 sequence (Q9H244 whole entry): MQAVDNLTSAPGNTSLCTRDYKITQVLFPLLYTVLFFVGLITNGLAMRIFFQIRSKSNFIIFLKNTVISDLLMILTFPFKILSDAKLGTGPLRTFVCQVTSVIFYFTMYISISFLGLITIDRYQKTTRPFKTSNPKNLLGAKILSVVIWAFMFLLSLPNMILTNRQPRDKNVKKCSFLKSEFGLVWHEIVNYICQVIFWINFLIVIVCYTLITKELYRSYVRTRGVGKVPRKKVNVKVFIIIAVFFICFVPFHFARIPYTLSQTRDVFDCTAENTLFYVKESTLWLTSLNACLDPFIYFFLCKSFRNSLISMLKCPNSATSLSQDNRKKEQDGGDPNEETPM
T5 sequence (Q15077 whole entry): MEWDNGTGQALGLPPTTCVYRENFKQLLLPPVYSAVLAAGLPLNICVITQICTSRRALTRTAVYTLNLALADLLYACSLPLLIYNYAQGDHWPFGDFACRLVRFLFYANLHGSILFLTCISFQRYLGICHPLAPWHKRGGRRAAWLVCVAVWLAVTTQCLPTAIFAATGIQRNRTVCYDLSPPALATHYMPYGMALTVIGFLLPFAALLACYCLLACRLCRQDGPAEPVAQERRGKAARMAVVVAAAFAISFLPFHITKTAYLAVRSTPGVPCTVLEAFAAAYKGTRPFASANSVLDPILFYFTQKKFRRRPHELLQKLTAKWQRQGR
T4 sequence (P51582 whole entry): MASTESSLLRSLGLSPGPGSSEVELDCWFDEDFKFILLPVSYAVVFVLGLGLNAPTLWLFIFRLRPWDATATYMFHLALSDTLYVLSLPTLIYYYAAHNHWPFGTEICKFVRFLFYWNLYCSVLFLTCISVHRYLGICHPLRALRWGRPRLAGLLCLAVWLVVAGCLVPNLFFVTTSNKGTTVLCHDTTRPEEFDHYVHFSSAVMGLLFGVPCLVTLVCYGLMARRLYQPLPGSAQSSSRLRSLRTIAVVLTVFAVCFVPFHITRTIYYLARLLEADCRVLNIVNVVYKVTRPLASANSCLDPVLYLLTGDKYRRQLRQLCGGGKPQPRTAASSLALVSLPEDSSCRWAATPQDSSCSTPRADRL

For “Sodium 3′-N-(3,5-dimethoxybenzoyl)-3′-deoxy-β-D-adenosine 5′-triphosphate [DT-0111]”, the “agonist or antagonist action at receptor” value on P2Y12, on P2Y13, on P2Y2, at P2Y4 and on P2Y6 was “does not act as an agonist or antagonist” throughout. Further, in data set [1], the “effect on ATP-induced action potentials” value is given as “markedly suppresses the effect of ATP”. The “Bout Cough T1#” value in the data set on conscious guinea-pigs (setting [2]) was 0. For the same substance, the “Bout Cough T2#” value in the data set on conscious guinea-pigs (setting [2]) came to 0. In addition, the “Individual Cough” value in the data set on conscious guinea-pigs (DT (12 mg/ml, 5 min) + ATP (48 mg/ml), per guinea-pig, listed as DT) is 0 (2×) and 1 (2×) and 7. Further, the “effect on ATP-induced bout of coughs” value with conscious guinea-pigs (setting [3]) was “blocked the bout of coughs in all tested animals”. In the data set on conscious guinea-pigs (setting [3]), the “effect on ATP-induced individual coughs” value was “little effect on individual coughs”. Also, the “cough evoked by the compound per se” value with conscious guinea-pigs (aerosolized DT-0111 alone) is on record as “did not evoke any cough”.
